The record followed here is PubChem BioAssay (NCI).

Test systems include EKVX NSCLC; M14 melanoma; HS 578T breast; HOP-92 NSCLC; NCI-H460 lung; NCI-H226 lung; HCC-2998 colon; SF-295 CNS; U251 CNS; UACC-62 melanoma; ACHN renal; MDA-N; PC-3 prostate; BT-549 breast.
Common to all, as to assay: growth of human tumour cells (NCI), 48 h

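Where inhibition never reached the appropriate level, the endpoint shown equals the highest concentration tested. Otherwise, values were interpolated linearly from a five-concentration, 48-hour dose response in 96-well plates. TGI denotes the concentration required for complete inhibition of growth.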

Turning to `CC1(C)CC(=O)/C(=C/C2CCNC2=S)C(=O)N1` (configuration not stated), the TGI in the assay on EKVX NSCLC, with M14 melanoma, in the assay on HS 578T breast, with HOP-92 NSCLC, in the assay with NCI-H460 lung and in the assay with NCI-H226 lung was above 100 µM throughout. For the same compound, the TGI with HCC-2998 colon, with SF-295 CNS, with U251 CNS, in the assay on UACC-62 melanoma, in the assay on ACHN renal and with MDA-N was above 100 µM each time. The same compound showed a TGI in the assay on PC-3 prostate above 100 µM.

In the case of `C=C[C@@H](OCOCC[Si](C)(C)C)[C@@H](CC)OC(CCCOC(=O)C(C)(C)C)OC` (some centres not stated), the TGI was 65.4 µM with EKVX NSCLC; above 100 µM in the assay with M14 melanoma; 99.5 µM in the assay with HS 578T breast; above 100 µM in the assay with HOP-92 NSCLC; above 100 µM in the assay with NCI-H460 lung; 81.6 µM in the assay on NCI-H226 lung. Besides, the TGI in the assay with SF-295 CNS is 50.7 µM; with U251 CNS it was 57.6 µM; with UACC-62 melanoma, 81.3 µM; in the assay with ACHN renal it was above 100 µM; in the assay on MDA-N, above 100 µM; in the assay on PC-3 prostate, above 100 µM.

As to `COC1(C(C)(C)C)C=C(C(C)(C)C)P(=O)(O)O1` (configuration not stated), the TGI with EKVX NSCLC, in the assay with M14 melanoma, with HS 578T breast, in the assay with HOP-92 NSCLC, in the assay on NCI-H460 lung and in the assay with HCC-2998 colon was above 100 µM each time. For the same compound, the TGI with SF-295 CNS, in the assay with U251 CNS, in the assay with UACC-62 melanoma, with ACHN renal, with MDA-N and in the assay on PC-3 prostate was above 100 µM in each case.

In the case of `Cc1cccc(-n2c(C)nc3ccc(NC4OC(CO)C(O)C(O)C4O)cc3c2=O)c1` (configuration not stated), the TGI in the assay on EKVX NSCLC, in the assay on HS 578T breast, with NCI-H460 lung, with BT-549 breast, with NCI-H226 lung and in the assay on HCC-2998 colon was above 100 µM in each case. In addition, the TGI with SF-295 CNS, with U251 CNS, in the assay with UACC-62 melanoma, in the assay with ACHN renal, in the assay with MDA-N and in the assay on PC-3 prostate was above 100 µM each time.

For `COC(=O)/C=C/c1cnc2c(c1)oc(=O)n2CCc1ccccn1`, the TGI in the assay with EKVX NSCLC, with M14 melanoma, in the assay on HS 578T breast, in the assay on NCI-H460 lung, in the assay with BT-549 breast and in the assay with NCI-H226 lung was above 100 µM in each case. Moreover, the TGI in the assay with HCC-2998 colon, with SF-295 CNS, with U251 CNS, with UACC-62 melanoma, in the assay on ACHN renal and in the assay on MDA-N was above 100 µM throughout. Further, the TGI in the assay with PC-3 prostate is above 100 µM.

In the case of `CN1CCC(CNC(=O)CCCCCCCCC(=O)NCC2(c3ccccc3)CCN(C)CC2)(c2ccccc2)CC1`, the TGI is 38.8 µM in the assay with EKVX NSCLC; above 100 µM with M14 melanoma; above 100 µM in the assay with HS 578T breast; above 100 µM in the assay with NCI-H460 lung; above 100 µM with BT-549 breast; above 100 µM with NCI-H226 lung. The TGI in the assay on HCC-2998 colon, in the assay with SF-295 CNS, in the assay with U251 CNS, in the assay on UACC-62 melanoma, in the assay with ACHN renal and in the assay on MDA-N was above 100 µM throughout. In the assay with PC-3 prostate, this compound showed a TGI above 100 µM.

For the compound `O=C1CSC(/C=C/c2ccccc2)N1c1ccc(-c2ccc(-n3c(-c4ccccc4)nc4ccccc4c3=O)cc2)cc1` (configuration not stated), the TGI with EKVX NSCLC was 73.1 µM; with M14 melanoma, 35.4 µM; with HOP-92 NSCLC, 56.2 µM; with NCI-H460 lung, above 100 µM; in the assay on BT-549 breast, 39.2 µM; in the assay on HCC-2998 colon, above 100 µM. Further, the TGI is 55.7 µM in the assay with SF-295 CNS; 88.5 µM in the assay with U251 CNS; above 100 µM in the assay on UACC-62 melanoma; 94.9 µM with ACHN renal; 67.9 µM in the assay on MDA-N; 65.3 µM in the assay on PC-3 prostate.

As for `CCOc1cc(-c2nc3ccccn3c2/N=C/c2cc([N+](=O)[O-])cc([N+](=O)[O-])c2O)ccc1O`, the TGI in the assay with EKVX NSCLC, with M14 melanoma, in the assay with HS 578T breast, with HOP-92 NSCLC, in the assay on NCI-H460 lung and in the assay on BT-549 breast was above 100 µM in each case. Moreover, the TGI in the assay on SF-295 CNS, with U251 CNS, in the assay on UACC-62 melanoma, in the assay with ACHN renal, in the assay with MDA-N and in the assay on PC-3 prostate was above 100 µM throughout.

For `CCCCC1Cc2ccccc2-c2n1c1ccccc1[n+]2C` (configuration not stated), the TGI with EKVX NSCLC is above 100 µM; in the assay on M14 melanoma it was above 100 µM; in the assay on HS 578T breast it was 81.5 µM; in the assay with HOP-92 NSCLC, above 100 µM; in the assay with NCI-H460 lung it was above 100 µM; with NCI-H226 lung, above 100 µM. The TGI was 48.3 µM in the assay on HCC-2998 colon; above 100 µM with SF-295 CNS; above 100 µM in the assay with U251 CNS; above 100 µM in the assay on ACHN renal; 64.5 µM in the assay with MDA-N; 43 µM in the assay on PC-3 prostate.

Consider `NCCC(=O)N[C@H](Cc1cc(O)c(O)c(SCC(NC(=O)CC[C@H](N)C(=O)O)C(=O)NCC(=O)O)c1)C(=O)O` (some centres not stated), for which the TGI with EKVX NSCLC, with M14 melanoma, with HOP-92 NSCLC, with NCI-H460 lung, with BT-549 breast and in the assay with NCI-H226 lung was above 50 µM throughout. The TGI in the assay with HCC-2998 colon, with SF-295 CNS, with U251 CNS, with UACC-62 melanoma, in the assay with ACHN renal and in the assay on MDA-N was above 50 µM throughout. For the same compound, the TGI in the assay with PC-3 prostate is above 50 µM.

With `CCSc1c(C)c2c(n(Cc3ccc(OC)cc3)c1=O)Cc1ccccc1C2`, the TGI was 96.9 µM in the assay with EKVX NSCLC; 27.3 µM in the assay with M14 melanoma; above 100 µM in the assay on HS 578T breast; 27.7 µM in the assay on NCI-H460 lung; 93.4 µM in the assay on BT-549 breast; above 100 µM in the assay on NCI-H226 lung. For the same compound, the TGI was 41.6 µM with HCC-2998 colon; above 100 µM in the assay with SF-295 CNS; 82.4 µM with U251 CNS; above 100 µM in the assay with UACC-62 melanoma; 84.2 µM with ACHN renal; above 100 µM in the assay on MDA-N. For the same compound, the TGI with PC-3 prostate was 84.3 µM.
